Source: patent US12247032B2, “Substituted pyrazolo[1,5-a]pyrimidines as inhibitors of JAK kinases” (Genentech, Inc., priority 2019, dated 2025)

What was measured:
[1] = target: T1, recombinant human JAK1 kinase domain protein (Residues 854-1154) (Homo sapiens, UniProt P23458); test: JAK1 biochemical assay (microfluidic mobility shift, peptide phosphorylation); details: 25 μM ATP, 1 nM total JAK1; Ki calculated from Ki app (tight-binding, competitive); read-out: Biochem JAK1 Ki
T1 construct: human JAK1 kinase domain protein (Residues 854-1154); purchased Proteros Biostructures GmbH (Martinsried, Germany); host or cells: insect cells
T1 sequence (P23458 854-1154): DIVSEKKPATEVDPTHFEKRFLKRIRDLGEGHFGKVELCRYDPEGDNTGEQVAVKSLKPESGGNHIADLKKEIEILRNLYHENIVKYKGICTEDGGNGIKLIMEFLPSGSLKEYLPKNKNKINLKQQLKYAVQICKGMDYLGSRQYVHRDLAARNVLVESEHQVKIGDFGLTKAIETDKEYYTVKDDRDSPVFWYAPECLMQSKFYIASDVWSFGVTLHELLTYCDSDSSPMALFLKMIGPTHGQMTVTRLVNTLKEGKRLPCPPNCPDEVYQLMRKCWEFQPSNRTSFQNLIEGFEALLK
How it was run: (§1)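 Insect-cell-expressed human JAK1 (1 nM, residues 854-1154) or JAK2 (0.2 nM, residues 812-1132) phosphorylating 1.5 μM 5-FAM peptide Y-1B with 25 μM ATP, pH 7.2 HEPES, 30 min at 22-23 °C; twelve concentrations up to 1000 nM in duplicate. Mobility-shift % conversion fitted to tight-binding quadratic for Ki^app.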

[2] = target: T2, Recombinant human JAK2 kinase domain protein (Residues 812-1132) (Homo sapiens, UniProt O60674); test: JAK2 biochemical assay (microfluidic mobility shift, peptide phosphorylation); details: 25 μM ATP, 0.2 nM total JAK2; Ki calculated from Ki app (tight-binding, competitive); read-out: Biochem JAK2 Ki
T2 construct: human JAK2 kinase domain protein (Residues 812-1132); made in house; host or cells: insect cells
T2 sequence (O60674 812-1132): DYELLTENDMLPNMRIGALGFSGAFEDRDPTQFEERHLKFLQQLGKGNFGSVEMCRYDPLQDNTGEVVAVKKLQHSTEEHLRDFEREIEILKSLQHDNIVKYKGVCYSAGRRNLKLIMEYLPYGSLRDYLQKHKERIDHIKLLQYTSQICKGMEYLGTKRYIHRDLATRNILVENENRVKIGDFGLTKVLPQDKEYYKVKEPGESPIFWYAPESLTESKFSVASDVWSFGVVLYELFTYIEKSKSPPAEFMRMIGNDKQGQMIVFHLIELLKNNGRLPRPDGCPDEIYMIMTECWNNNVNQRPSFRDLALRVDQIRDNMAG
How it was run: as §1

[3] = system: JAK1 (IL-13-stimulated STAT6 phosphorylation in BEAS-2B cells); test: P-STAT6 BEAS-2B+IL-13 cell assay; type: cell-based, human; details: Homo sapiens, BEAS-2B, 1 h, 1 hour compound, IL-13 15 minutes, IC50 by four-parameter fit, read-out: Cellular JAK1 PSTAT6 BEAS2B + IL13
How it was run: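 BEAS-2B human bronchial epithelial cells preincubated 1 h at 37 °C with compound, then stimulated with human recombinant IL-13 for 15 min. Phospho-STAT6 (Tyr641) in lysates measured by MSD electrochemiluminescence immunoassay; IC50 from a four-parameter logistic fit of percent of control.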

SMILES	Ki [1] [nM]	Ki [2] [nM]	IC50 [3] [nM]
CN(C)C(C)(C)CCN1CC(n2nnc(Cn3cc(NC(=O)c4cnn5cccnc45)c(-c4cc(OC(F)F)ccc4OC(F)F)n3)n2)C1 [Example 77, N-[3-[2,5-bis(difluoromethoxy)phenyl]-1-[[2-[1-[3-(dimethylamino)-3-methyl-butyl]azetidin-3-yl]tetrazol-5-yl]methyl]pyrazol-4-yl]pyrazolo[1,5-a]pyrimidine-3-carboxamide]	0.38	0.39	110
CC(C)Sc1ccc(OC(F)F)c(-c2nn(Cc3nnn(C4CN(C5CCN(C)CC5)C4)n3)cc2NC(=O)c2cnn3cccnc23)c1 [Example 79, N-[3-[2-(difluoromethoxy)-5-isopropylsulfanyl-phenyl]-1-[[2-[1-(1-methyl-4-piperidyl)azetidin-3-yl]tetrazol-5-yl]methyl]pyrazol-4-yl]pyrazolo[1,5-a]pyrimidine-3-carboxamide]	0.5	0.44	40
CN(C)C1(CCN2CC(n3nnc(Cn4cc(NC(=O)c5cnn6cccnc56)c(-c5cc(OC(F)F)ccc5OC(F)F)n4)n3)C2)CC1 [Example 80, N-[3-[2,5-bis(difluoromethoxy)phenyl]-1-[[2-[1-[2-[1-(dimethylamino)cyclopropyl]ethyl]azetidin-3-yl]tetrazol-5-yl]methyl]pyrazol-4-yl]pyrazolo[1,5-a]pyrimidine-3-carboxamide; formic acid]	0.46	0.41	40
